Tests used:
[1] = tested on: C. difficile strain VPI 10463; assay: Acute murine C. difficile infection model; format: in vivo, C57BL/6 mice; conditions: PO; 52 hours after infection
Text: In a hospital environment, C. difficile infection occurs when the patient receives an antibiotic treatment that disrupts the normal gut microflora and is exposed to C. difficile spores. The patient often fails to mount a protective immune response against the acute C. difficile infection. (Rupnik, Wilcox et al. 2009). To study the acute C. difficile infection, we established a murine C. difficile infection model. Details of the infection model are provided in the “Experimental Protocol” (below).
In brief, female C57BL/6 mice were administered the following antibiotics: colistin (0.042 units/mL), gentamicin (0.035 mg/mL), kanamycin (0.4 mg/mL), metronidazole (0.215 mg/mL) and vancomycin (0.045 mg/mL) in drinking water for 3 days. The administered antibiotics disrupted the normal gut microflora in mice. On the 4th day, mice received oral administration of 0.5 mL volume containing ˜100 spores produced from a virulent clinical C. difficile isolate (strain VPI 10463). In this acute murine C. difficile infection model, we observed a similar time course of infection when compared to that of clinical patients.
Using the developed murine C. difficile infection model (Example 67), we evaluated our test compounds for their efficacy in reducing weight loss and gut inflammation caused by the acute C. difficile infection. We tested the efficacy of Example 6a and Example 5ae and used eight (8) animals in each group.
We further tested the efficacy of the Example 6a, Example 5ae, Example 4cl, and Example 5al compounds by PO administration. Vancomycin was used as a positive control. Three (3) experiments were performed utilizing a total of five (5) to sixteen (16) animals in each group.
C. difficile strain VPI 10463 was grown for four (4) days in 10 ml of BHI in a Bactron anaerobic workstation (Shel Lab). The culture was centrifuged at 2,700 g for 10 minutes. The bacterial pellet was washed with 10 mL of PBS and the centrifugation was repeated. The pellet was then re-suspended in 10 mL of PBS, incubated at 56° C. for 10 minutes, and then was frozen at −20° C. until used. Titers of spore stocks were determined by serial dilution and plating onto BHI and with 1% taurocholate and counting of colonies after incubation for 24 hours at 37° C. using the GasPak EZ Anaerobe Pouch System.
We utilized an established C. difficile murine infection model (Chen, Katchar et al. 2008). To render them susceptible to infection, female C57BL/6 mice (˜10 weeks old and weighing ˜20 g) were administered the following antibiotics (Sigma Aldrich) in drinking water for 3 days (Days −6 to −3): colistin (0.042 units/mL), gentamicin (0.035 mg/mL), kanamycin (0.4 mg/mL), metronidazole (0.215 mg/mL) and vancomycin (0.045 mg/mL). Based upon an expected water consumption of 100 mL/kg/day, the approximate doses of these antibiotics will be as follows: colistin (4.2 units/kg/day), gentamicin (3.5 mg/kg/day), kanamycin (40 mg/kg/day), metronidazole (21.5 mg/kg/day) and vancomycin (4.5 mg/kg/day). The animals were provided with regular drinking water for two days (Day −2 and Day −1), and the next day (Day 0) they were administered clindamycin phosphate (1 mg/mL solution in PBS) at 10 mL/kg by intraperitoneal injection, for a final dose of 10 mg/kg body weight. The following day (Day 1), they were orally gavaged with ˜100 spores in a 0.5 ml volume.
Compounds were administered beginning ˜8 hours after infection, and the animals were dosed twice per day for two days (Days 2-3) with a total of four doses. Compounds were prepared as 5 mg/mL suspensions in 20% PEG-400, 0.4% carboxymethyl cellulose and 0.2% Tween 80 and administered at a dose of 10 mL/kg, for a final dose of 50 mg/kg body weight.
Animals were observed and weighed two (2) to (3) times daily. Animals that were obviously moribund or had lost >20% of their initial body weight were euthanized. Sub-groups of animals were euthanized four (4) hours after the final compound dose (52 hours after infection). […]

[2] = molecular target: T1, recombinant glucosyltransferase domain of C. difficile Toxin B/TcdB (Clostridioides difficile, UniProt P18177); assay: biochemical
T1 construct: 6-His (C); purchased R&D Systems 6246-GT

[3] = tested on: C. difficile toxin (TcdA and TcdB, ~1:1); assay: Murine C. difficile toxin model (intrarectal toxin); format: in vivo, C57BL/6 mice; conditions: for IL-1β (% Inhibition) / MPO (% Inhibition): murine C. difficile toxin model, PO, 50 mg/kg body weight
Description: In the following studies, we established a murine C. difficile toxin model with modifications from a published murine model (Hirota, Iablokov et al. 2012). Details of the murine C. difficile toxin model are described in the “Experimental Protocols” (below). C. difficile toxins were isolated from a culture of the C. difficile strain VPI 10463. C. difficile toxins consisted of TcdA and TcdB (˜1:1 ratio of TcdA:TcdB). Respective TcdA and TcdB concentrations were determined by enzyme-linked immunosorbant assay (ELISA). In our mouse model, C. difficile toxins were administered intrarectally to evaluate their pathological effects.
We administered C. difficile toxin (12.5 μg/mouse) via intrarectal instillation into female C57BL/6 mice. Four (4) animals were used in each group. Four (4) hours after the toxin administration, the mice were euthanized. The colons were excised from the animals and washed with phosphate buffered saline (PBS). The colon lengths were measured. Excised colon tissues were stored at −70° C. for chemical analysis of interleukin-1β(IL-1β) and myeloperosidase (MPO) in tissues, which are the hallmarks of colon inflammation. Excised colon tissues were also stored at room temperature in 10% neutral buffered formalin for histopathological analysis.
Using the murine C. difficile toxin model (Example 61), we evaluated the efficacy of Example 6a in reducing the C. difficile toxin activity. In this study, the isolated toxin (12.5 μg) was diluted in 50 μl of PBS and mixed with a 50 μl suspension of Example 6a (10 mg/mL) in 1% carboxymethyl cellulose and 0.5% Tween 80 to achieve a fixed dose of […] of Example 6a (0.5 mg in mice weighing ˜20 g) and C. difficile toxin (12.5 μg). Three (3) animals were used in each group.
In this study, we evaluated the efficacy of Example 6a via different routes of administration (i.e., oral (PO) and intraperitoneal (IP) administrations) in the same murine C. difficile toxin model (Example 61). In both PO and IP dosages, Example 6a was prepared as 5 mg/mL solutions in 20% PEG-400, 0.4% carboxymethyl cellulose and 0.2% Tween 80. Example 6a was administered at a final dose of 50 mg/kg body weight. Three (3) mice were used in each group (i.e., vehicle (control), PO and IP).
Using the murine C. difficile toxin model (Example 63), we further tested the efficacy of four (4) additional compounds (i.e., Example 6a, Example 5ae, Example 4cl, and Example 5al) via PO administration. All of the compounds were dosed orally at 50 mg/kg body weight. In three separate studies a total of three (3) to fourteen (14) mice were used in each group.
We evaluated the efficacy of additional compounds in reducing C. difficile toxicity. Using the PO administration (Example 63), we further tested 30 compounds (Table 34). All of the compounds were dosed orally at 50 mg/kg body weight. Three (3) to fourteen (14) animals were used for each compound. % inhibition was determined by the following formula: […]
An overnight culture of C. difficile strain VPI 10463 (American Type Culture Collection) was grown at 37° C. in Brain-Heart Infusion (BHI) broth using the GasPak EZ Anaerobe Pouch System (Becton Dickinson). 2 mL of the culture was added to 28 mL of phosphate buffered saline (PBS) in a gamma-irradiated, 10,000 molecular weight cut-off, 30-70 ml Slide-A-Lyzer G2 dialysis cassette (Pierce). This cassette was submerged in 1 L of BHI broth in a 2 L beaker and incubated under anaerobic conditions for 5 days at 37° C. The culture was then transferred to a 50 mL conical tube and the cassette was washed with 10 mL of PBS. The combined culture and wash were centrifuged at 2,000 g for 20 minutes to pellet the bacteria and the supernatant was filtered through a 0.2 μm syringe filter. The filtrate was then applied to a 20 mL 150 K molecular weight cut-off concentration column (Pierce) and centrifuged at 2,000 g for 15 minutes. Concentrated supernatant was stored at 4° C. […]

[4] = molecular target: T2, C. difficile full-length toxin TcdB (Clostridioides difficile, UniProt P18177); assay: cell-based
T2 construct: C. difficile full-length toxins (TcdA or TcdB); purchased EMD Millipore 616377

[5] = molecular target: T3, C. difficile full-length toxin TcdA (Clostridioides difficile, UniProt P16154); assay: cell-based
T3 construct: C. difficile full-length toxins (TcdA or TcdB); purchased Enzo Life Sciences BML-G140-0050

[6] = oral (PO), 50 mg/kg, intrarectal toxin 12.5 μg

T1 sequence (P18177 1-543): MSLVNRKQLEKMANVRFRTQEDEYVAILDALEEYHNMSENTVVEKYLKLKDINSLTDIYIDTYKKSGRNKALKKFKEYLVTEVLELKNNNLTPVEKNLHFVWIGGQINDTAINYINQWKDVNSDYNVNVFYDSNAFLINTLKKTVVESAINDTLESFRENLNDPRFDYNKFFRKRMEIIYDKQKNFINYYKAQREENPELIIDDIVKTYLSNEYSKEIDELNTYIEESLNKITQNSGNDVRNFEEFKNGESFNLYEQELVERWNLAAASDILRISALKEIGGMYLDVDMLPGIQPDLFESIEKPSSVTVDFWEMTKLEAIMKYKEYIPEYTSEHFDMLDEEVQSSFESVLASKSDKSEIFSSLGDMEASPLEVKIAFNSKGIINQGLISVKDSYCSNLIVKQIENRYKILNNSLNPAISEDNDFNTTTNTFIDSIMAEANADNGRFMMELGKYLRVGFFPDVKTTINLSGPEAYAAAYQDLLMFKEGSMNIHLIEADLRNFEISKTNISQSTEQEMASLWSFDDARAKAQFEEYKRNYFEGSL
T3 sequence (P16154 whole entry, looked up): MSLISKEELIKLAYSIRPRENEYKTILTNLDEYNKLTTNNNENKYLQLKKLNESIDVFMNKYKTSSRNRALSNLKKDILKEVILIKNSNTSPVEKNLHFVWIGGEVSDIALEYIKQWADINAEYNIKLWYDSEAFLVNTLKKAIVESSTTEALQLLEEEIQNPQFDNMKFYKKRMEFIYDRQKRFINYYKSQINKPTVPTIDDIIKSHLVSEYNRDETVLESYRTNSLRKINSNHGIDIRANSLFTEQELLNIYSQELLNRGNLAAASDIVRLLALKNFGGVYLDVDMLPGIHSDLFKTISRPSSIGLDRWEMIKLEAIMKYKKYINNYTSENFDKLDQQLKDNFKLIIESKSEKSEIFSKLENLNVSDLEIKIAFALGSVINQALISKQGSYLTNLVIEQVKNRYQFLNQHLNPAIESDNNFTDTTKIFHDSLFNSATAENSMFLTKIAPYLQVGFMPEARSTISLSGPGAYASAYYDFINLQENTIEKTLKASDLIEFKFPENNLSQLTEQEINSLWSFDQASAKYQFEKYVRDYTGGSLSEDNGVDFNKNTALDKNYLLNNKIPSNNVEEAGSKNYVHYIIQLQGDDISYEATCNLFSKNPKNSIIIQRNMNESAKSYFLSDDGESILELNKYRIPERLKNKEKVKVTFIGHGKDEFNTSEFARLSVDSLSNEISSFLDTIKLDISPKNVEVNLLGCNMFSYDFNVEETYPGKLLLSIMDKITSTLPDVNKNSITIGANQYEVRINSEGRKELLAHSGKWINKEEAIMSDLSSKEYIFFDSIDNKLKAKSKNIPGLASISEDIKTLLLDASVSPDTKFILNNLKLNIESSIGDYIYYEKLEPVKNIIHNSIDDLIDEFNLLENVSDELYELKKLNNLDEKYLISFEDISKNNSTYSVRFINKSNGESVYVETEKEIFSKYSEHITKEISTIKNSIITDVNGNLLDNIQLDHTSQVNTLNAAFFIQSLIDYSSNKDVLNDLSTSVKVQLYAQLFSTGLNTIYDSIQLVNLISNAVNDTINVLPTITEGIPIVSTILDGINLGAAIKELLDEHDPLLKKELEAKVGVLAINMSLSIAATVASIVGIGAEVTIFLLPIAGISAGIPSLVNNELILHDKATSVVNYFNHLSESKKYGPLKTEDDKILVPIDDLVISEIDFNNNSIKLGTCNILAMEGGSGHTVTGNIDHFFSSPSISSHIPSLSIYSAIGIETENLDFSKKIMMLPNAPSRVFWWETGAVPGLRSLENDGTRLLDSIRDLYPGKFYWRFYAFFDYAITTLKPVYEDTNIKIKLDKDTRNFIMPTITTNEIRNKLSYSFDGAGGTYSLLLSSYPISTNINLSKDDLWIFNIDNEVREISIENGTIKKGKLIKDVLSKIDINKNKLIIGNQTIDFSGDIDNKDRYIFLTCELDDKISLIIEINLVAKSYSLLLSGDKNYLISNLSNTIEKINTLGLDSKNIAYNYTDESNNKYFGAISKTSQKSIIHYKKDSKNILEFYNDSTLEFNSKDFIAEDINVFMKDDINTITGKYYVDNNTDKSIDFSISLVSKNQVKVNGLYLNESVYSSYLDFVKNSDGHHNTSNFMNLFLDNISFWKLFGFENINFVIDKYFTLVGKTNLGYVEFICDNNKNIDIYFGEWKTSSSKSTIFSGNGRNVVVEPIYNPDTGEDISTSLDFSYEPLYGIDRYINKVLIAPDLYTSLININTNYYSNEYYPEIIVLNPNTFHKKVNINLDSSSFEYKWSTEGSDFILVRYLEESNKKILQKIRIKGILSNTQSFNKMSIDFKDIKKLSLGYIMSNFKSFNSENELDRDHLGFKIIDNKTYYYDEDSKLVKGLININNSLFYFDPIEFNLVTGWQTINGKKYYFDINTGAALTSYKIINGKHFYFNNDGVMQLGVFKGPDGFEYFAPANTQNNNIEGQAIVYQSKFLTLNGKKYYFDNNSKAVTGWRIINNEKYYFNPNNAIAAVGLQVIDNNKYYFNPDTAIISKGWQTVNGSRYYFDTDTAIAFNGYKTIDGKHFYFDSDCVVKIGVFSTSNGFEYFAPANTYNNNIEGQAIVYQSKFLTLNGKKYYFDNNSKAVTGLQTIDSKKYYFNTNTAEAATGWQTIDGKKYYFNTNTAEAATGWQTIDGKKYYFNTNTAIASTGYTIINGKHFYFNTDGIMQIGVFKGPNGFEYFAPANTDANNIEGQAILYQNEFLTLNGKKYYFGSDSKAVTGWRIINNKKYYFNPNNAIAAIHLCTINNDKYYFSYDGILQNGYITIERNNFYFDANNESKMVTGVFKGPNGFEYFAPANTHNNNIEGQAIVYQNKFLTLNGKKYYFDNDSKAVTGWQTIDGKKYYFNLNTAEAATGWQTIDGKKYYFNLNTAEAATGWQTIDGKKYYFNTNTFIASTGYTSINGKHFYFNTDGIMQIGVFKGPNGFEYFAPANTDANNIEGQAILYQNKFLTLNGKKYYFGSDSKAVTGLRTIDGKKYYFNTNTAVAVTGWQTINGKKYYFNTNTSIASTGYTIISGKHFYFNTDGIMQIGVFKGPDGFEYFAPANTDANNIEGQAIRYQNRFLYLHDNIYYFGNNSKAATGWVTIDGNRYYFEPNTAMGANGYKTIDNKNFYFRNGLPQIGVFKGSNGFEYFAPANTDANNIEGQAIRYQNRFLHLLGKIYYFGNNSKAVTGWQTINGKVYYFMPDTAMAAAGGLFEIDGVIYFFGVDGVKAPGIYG

SMILES	toxin effect on colon length [1]	IC50 [2]	IL-1β (% Inhibition) [3]	MPO (% Inhibition) [3]	IL-1β in colon tissue [3, 6]	MPO in colon tissue [3, 6]	toxin effect on colon length [3, 6]	IC50 [4]	IC50 [5]
COc1ccc(NC(=O)c2ccc(CN3C(=O)c4ccc(Cl)cc4NC(=O)[C@H]3Cc3ccccn3)cc2C)nc1 [Example 4cl, (R)-4-((8-Chloro-2,5-dioxo-3-(pyridin-2-ylmethyl)-2,3-dihydro-1H-benzo[e][1,4]diazepin-4(5H)-yl)methyl)-N-(5-methoxypyridin-2-yl)-2-methylbenzamide]	significantly reduced the toxin effect on colon length	< 100 nM	100%	100%	reduced the levels of IL-1β	reduced	reduced the C. difficile toxin-mediated effects on colon length	< 100 nM	0.1 to 0.999 µM
O=C(c1ccccn1)c1ccc(CN2C(=O)c3ccc(Cl)cc3NC(=O)[C@H]2Cc2ccccn2)cc1Cl [Example 11g, (R)-8-Chloro-4-(3-chloro-4-picolinoylbenzyl)-3-(pyridin-2-ylmethyl)-3,4-dihydro-1H-benzo[e][1,4]diazepine-2,5-dione]		< 100 nM	15%	28%				1000 to 10000 nM	> 10 µM
O=C(Nc1ccc(CN2C(=O)c3ccc(Cl)cc3NC(=O)[C@H]2Cc2ccccn2)cc1)c1c[nH]cn1 [Example 27j, (R)-N-(4-((8-Chloro-2,5-dioxo-3-(pyridin-2-ylmethyl)-2,3-dihydro-1H-benzo[e][1,4]diazepin-4(5H)-yl)methyl)phenyl)-1H-imidazole-4-carboxamide]		< 100 nM	41%	1%				1000 to 10000 nM	> 10 µM
Cn1cc(C(=O)c2ccc(CN3C(=O)c4ccc(Cl)cc4NC(=O)[C@H]3Cc3ccccn3)cc2)c2ncccc21 [Example 31a, (R)-8-Chloro-4-(4-(1-methyl-1H-pyrrolo[3,2-b]pyridine-3-carbonyl)benzyl)-3-(pyridin-2-ylmethyl)-3,4-dihydro-1H-benzo[e][1,4]diazepine-2,5-dione]		< 100 nM	100%	100%				100 to 999 nM	1 to 10 µM
Cn1cc(C(=O)[C@H]2CC[C@H](CN3C(=O)c4ccc(Cl)cc4NC(=O)[C@H]3Cc3ccccn3)CC2)c2ncccc21 [Example 33b, (R)-8-Chloro-4-(((1r,4R)-4-(1-methyl-1H-pyrrolo[3,2-b]pyridine-3-carbonyl)cyclohexyl)methyl)-3-(pyridin-2-ylmethyl)-3,4-dihydro-1H-benzo[e][1,4]diazepine-2,5-dione]		< 100 nM	84%	41%				100 to 999 nM	1 to 10 µM
O=C1Nc2cc(Cl)ccc2C(=O)N(Cc2ccc(N3CCc4cccnc4C3=O)cc2)[C@@H]1Cc1ccccn1 [Example 49b, (R)-8-Chloro-4-(4-(8-oxo-5,6-dihydro-1,7-naphthyridin-7(8H)-yl)benzyl)-3-(pyridin-2-ylmethyl)-3,4-dihydro-1H-benzo[e][1,4]diazepine-2,5-dione]		< 100 nM	13%	0%				1000 to 10000 nM	> 10 µM
O=C1Nc2cc(Cl)ccc2C(=O)N(Cc2ccc(N3Cc4cccnc4C3=O)cc2)[C@@H]1Cc1ccccn1 [Example 49c, (R)-8-Chloro-4-(4-(7-oxo-5H-pyrrolo[3,4-b]pyridin-6(7H)-yl)benzyl)-3-(pyridin-2-ylmethyl)-3,4-dihydro-1H-benzo[e][1,4]diazepine-2,5-dione]		< 100 nM	30%	0%				> 10000 nM	> 10 µM

— patent publication US10669242B2 (priority 2016, dated 2020)
